{"source": "PubChem BioAssay (NCI)", "note": "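All cell lines were grown in 96-well plates and treated with compound for 48 hours. At the TGI there is no net growth.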", "data": [{"test_system": "A498 renal", "test": "DTP human tumour cell line panel, 48 h", "units": {"TGI": "µM"}, "values": [{"smiles": "[N-]=[N+]=NCc1nc(N)c2c3c(sc2n1)CCCC3", "TGI": 45}, {"smiles": "CCOC(=O)C(CCN1CCC2(CC1)C(=O)N(C)CN2c1ccccc1)C(=O)OCC", "TGI": "> 100"}, {"smiles": "Cc1cc(/N=C/c2ccc(F)cc2)n(-c2ccccc2)n1", "TGI": "> 100"}, {"smiles": "CCOC(=O)/C=C(/C(=O)OCC)n1cnc2c(=O)[nH]c(NC(C)=O)nc21", "TGI": "> 100"}, {"smiles": "O=C1NC(N/N=C\\C(O)C(O)C(O)C(O)CO)=N/C1=C/c1ccc(Cl)cc1", "note": "(stereo not given)", "TGI": "> 100"}, {"smiles": "CC(Oc1ccc(Cl)cc1Cl)C(=O)NN1C(=O)CSC1c1ccccc1", "note": "(stereo not given)", "TGI": "> 100"}, {"smiles": "CCOC(=O)/C=C(\\C(=O)OCC)n1ccc(=O)n(Cc2cn(CCCCOC(C)=O)nn2)c1=O", "TGI": 32}, {"smiles": "O=C1c2ccccc2C(=O)c2c1nc1ccccc1c2-c1cncc(-c2c3c(nc4ccccc24)C(=O)c2ccccc2C3=O)c1", "TGI": 26.7}, {"smiles": "COC(C)(C)OCCN1CCN(CCN2C3=C(C=C(C(C)=O)C3)Sc3ccccc32)CC1", "TGI": 34}]}, {"test_system": "NCI-H460 lung", "test": "DTP human tumour cell line panel, 48 h", "units": {"TGI": "µM"}, "values": [{"smiles": "[N-]=[N+]=NCc1nc(N)c2c3c(sc2n1)CCCC3", "TGI": 13.6}, {"smiles": "CCOC(=O)C(CCN1CCC2(CC1)C(=O)N(C)CN2c1ccccc1)C(=O)OCC", "TGI": "> 100"}, {"smiles": "Cc1cc(/N=C/c2ccc(F)cc2)n(-c2ccccc2)n1", "TGI": "> 100"}, {"smiles": "CCOC(=O)/C=C(/C(=O)OCC)n1cnc2c(=O)[nH]c(NC(C)=O)nc21", "TGI": "> 100"}, {"smiles": "O=C1NC(N/N=C\\C(O)C(O)C(O)C(O)CO)=N/C1=C/c1ccc(Cl)cc1", "note": "(stereo not given)", "TGI": "> 100"}, {"smiles": "CC(Oc1ccc(Cl)cc1Cl)C(=O)NN1C(=O)CSC1c1ccccc1", "note": "(stereo not given)", "TGI": "> 100"}, {"smiles": "CCOC(=O)/C=C(\\C(=O)OCC)n1ccc(=O)n(Cc2cn(CCCCOC(C)=O)nn2)c1=O", "TGI": 57.7}, {"smiles": "O=C1c2ccccc2C(=O)c2c1nc1ccccc1c2-c1cncc(-c2c3c(nc4ccccc24)C(=O)c2ccccc2C3=O)c1", "TGI": 10}, {"smiles": "COC(C)(C)OCCN1CCN(CCN2C3=C(C=C(C(C)=O)C3)Sc3ccccc32)CC1", "TGI": 35.5}]}, {"test_system": "OVCAR-8 ovarian", "test": "DTP human tumour cell line panel, 48 h", "units": {"TGI": "µM"}, "values": [{"smiles": "[N-]=[N+]=NCc1nc(N)c2c3c(sc2n1)CCCC3", "TGI": 3.72}, {"smiles": "CCOC(=O)C(CCN1CCC2(CC1)C(=O)N(C)CN2c1ccccc1)C(=O)OCC", "TGI": "> 100"}, {"smiles": "Cc1cc(/N=C/c2ccc(F)cc2)n(-c2ccccc2)n1", "TGI": "> 100"}, {"smiles": "CCOC(=O)/C=C(/C(=O)OCC)n1cnc2c(=O)[nH]c(NC(C)=O)nc21", "TGI": "> 100"}, {"smiles": "O=C1NC(N/N=C\\C(O)C(O)C(O)C(O)CO)=N/C1=C/c1ccc(Cl)cc1", "note": "(stereo not given)", "TGI": "> 100"}, {"smiles": "CC(Oc1ccc(Cl)cc1Cl)C(=O)NN1C(=O)CSC1c1ccccc1", "note": "(stereo not given)", "TGI": "> 100"}, {"smiles": "CCOC(=O)/C=C(\\C(=O)OCC)n1ccc(=O)n(Cc2cn(CCCCOC(C)=O)nn2)c1=O", "TGI": 20.1}, {"smiles": "O=C1c2ccccc2C(=O)c2c1nc1ccccc1c2-c1cncc(-c2c3c(nc4ccccc24)C(=O)c2ccccc2C3=O)c1", "TGI": 27.1}, {"smiles": "COC(C)(C)OCCN1CCN(CCN2C3=C(C=C(C(C)=O)C3)Sc3ccccc32)CC1", "TGI": 42.1}]}, {"test_system": "SK-OV-3 ovarian", "test": "DTP human tumour cell line panel, 48 h", "units": {"TGI": "µM"}, "values": [{"smiles": "[N-]=[N+]=NCc1nc(N)c2c3c(sc2n1)CCCC3", "TGI": 24.1}, {"smiles": "CCOC(=O)C(CCN1CCC2(CC1)C(=O)N(C)CN2c1ccccc1)C(=O)OCC", "TGI": "> 100"}, {"smiles": "Cc1cc(/N=C/c2ccc(F)cc2)n(-c2ccccc2)n1", "TGI": "> 100"}, {"smiles": "CCOC(=O)/C=C(/C(=O)OCC)n1cnc2c(=O)[nH]c(NC(C)=O)nc21", "TGI": "> 100"}, {"smiles": "O=C1NC(N/N=C\\C(O)C(O)C(O)C(O)CO)=N/C1=C/c1ccc(Cl)cc1", "note": "(stereo not given)", "TGI": "> 100"}, {"smiles": "CC(Oc1ccc(Cl)cc1Cl)C(=O)NN1C(=O)CSC1c1ccccc1", "note": "(stereo not given)", "TGI": "> 100"}, {"smiles": "CCOC(=O)/C=C(\\C(=O)OCC)n1ccc(=O)n(Cc2cn(CCCCOC(C)=O)nn2)c1=O", "TGI": "> 65.5"}, {"smiles": "O=C1c2ccccc2C(=O)c2c1nc1ccccc1c2-c1cncc(-c2c3c(nc4ccccc24)C(=O)c2ccccc2C3=O)c1", "TGI": "> 100"}, {"smiles": "COC(C)(C)OCCN1CCN(CCN2C3=C(C=C(C(C)=O)C3)Sc3ccccc32)CC1", "TGI": 79.8}]}, {"test_system": "HOP-62 NSCLC", "test": "DTP human tumour cell line panel, 48 h", "units": {"TGI": "µM"}, "values": [{"smiles": "[N-]=[N+]=NCc1nc(N)c2c3c(sc2n1)CCCC3", "TGI": 18.3}, {"smiles": "CCOC(=O)C(CCN1CCC2(CC1)C(=O)N(C)CN2c1ccccc1)C(=O)OCC", "TGI": "> 100"}, {"smiles": "Cc1cc(/N=C/c2ccc(F)cc2)n(-c2ccccc2)n1", "TGI": "> 100"}, {"smiles": "CCOC(=O)/C=C(/C(=O)OCC)n1cnc2c(=O)[nH]c(NC(C)=O)nc21", "TGI": "> 100"}, {"smiles": "O=C1NC(N/N=C\\C(O)C(O)C(O)C(O)CO)=N/C1=C/c1ccc(Cl)cc1", "note": "(stereo not given)", "TGI": "> 100"}, {"smiles": "CC(Oc1ccc(Cl)cc1Cl)C(=O)NN1C(=O)CSC1c1ccccc1", "note": "(stereo not given)", "TGI": "> 100"}, {"smiles": "CCOC(=O)/C=C(\\C(=O)OCC)n1ccc(=O)n(Cc2cn(CCCCOC(C)=O)nn2)c1=O", "TGI": 41.2}, {"smiles": "O=C1c2ccccc2C(=O)c2c1nc1ccccc1c2-c1cncc(-c2c3c(nc4ccccc24)C(=O)c2ccccc2C3=O)c1", "TGI": "> 100"}, {"smiles": "COC(C)(C)OCCN1CCN(CCN2C3=C(C=C(C(C)=O)C3)Sc3ccccc32)CC1", "TGI": 36.2}]}]}
